This is an account of results in article PMC11233931, “Remodeling tumor‐associated macrophage for anti‐cancer effects by rational design of irreversible inhibition of mitogen‐activated protein kinase‐activated protein kinase 2” (MedComm, 2024).

What all share (test): Eurofins kinase selectivity profile against 380 other human recombinant kinases (Table S2)
Assay type in all cases: biochemical

The target in test [1] is T1, 380 human recombinant protein kinases (Homo sapiens, UniProt P29323).
T1 construct: purchased Eurofins (Celle Lévescault)
T1 sequence (P29323 19-1055): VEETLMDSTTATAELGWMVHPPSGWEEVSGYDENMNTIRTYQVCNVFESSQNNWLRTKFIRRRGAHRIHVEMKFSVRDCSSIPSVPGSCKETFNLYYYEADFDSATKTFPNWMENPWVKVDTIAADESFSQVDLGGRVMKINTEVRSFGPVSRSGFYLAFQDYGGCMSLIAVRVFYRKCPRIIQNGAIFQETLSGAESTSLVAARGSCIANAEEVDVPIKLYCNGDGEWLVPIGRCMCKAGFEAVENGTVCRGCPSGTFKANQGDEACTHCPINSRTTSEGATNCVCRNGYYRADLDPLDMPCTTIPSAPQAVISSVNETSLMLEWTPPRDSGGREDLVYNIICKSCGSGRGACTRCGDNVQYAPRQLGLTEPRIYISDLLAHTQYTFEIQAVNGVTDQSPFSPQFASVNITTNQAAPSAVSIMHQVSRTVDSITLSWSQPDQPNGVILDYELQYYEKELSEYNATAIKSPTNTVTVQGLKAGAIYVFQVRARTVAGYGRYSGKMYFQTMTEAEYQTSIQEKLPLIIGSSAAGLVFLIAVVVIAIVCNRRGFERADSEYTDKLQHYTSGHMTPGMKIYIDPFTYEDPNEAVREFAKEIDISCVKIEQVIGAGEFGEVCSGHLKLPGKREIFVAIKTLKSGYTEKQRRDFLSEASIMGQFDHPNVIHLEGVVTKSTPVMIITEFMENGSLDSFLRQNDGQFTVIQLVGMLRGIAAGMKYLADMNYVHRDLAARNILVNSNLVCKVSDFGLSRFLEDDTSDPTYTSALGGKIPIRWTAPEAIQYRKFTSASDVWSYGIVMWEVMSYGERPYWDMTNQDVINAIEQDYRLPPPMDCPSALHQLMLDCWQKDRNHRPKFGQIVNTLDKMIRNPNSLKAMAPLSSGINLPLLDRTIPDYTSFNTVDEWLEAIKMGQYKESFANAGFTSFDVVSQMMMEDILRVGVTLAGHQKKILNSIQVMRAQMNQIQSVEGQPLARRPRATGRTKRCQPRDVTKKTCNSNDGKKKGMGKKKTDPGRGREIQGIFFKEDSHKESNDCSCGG
Particulars: EphB2(h), read-out: Inhibition rate. The essentials:
(§1)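 Commercial selectivity screen of the test compound against a panel of 380 human recombinant protein kinases, run by an outside contractor at several compound concentrations to check whether its potency was specific for MK2.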

In test [2] the target is T2, 380 human recombinant protein kinases (Homo sapiens, UniProt Q15139).
T2 construct: purchased Eurofins (Celle Lévescault)
T2 sequence (Q15139 1-912): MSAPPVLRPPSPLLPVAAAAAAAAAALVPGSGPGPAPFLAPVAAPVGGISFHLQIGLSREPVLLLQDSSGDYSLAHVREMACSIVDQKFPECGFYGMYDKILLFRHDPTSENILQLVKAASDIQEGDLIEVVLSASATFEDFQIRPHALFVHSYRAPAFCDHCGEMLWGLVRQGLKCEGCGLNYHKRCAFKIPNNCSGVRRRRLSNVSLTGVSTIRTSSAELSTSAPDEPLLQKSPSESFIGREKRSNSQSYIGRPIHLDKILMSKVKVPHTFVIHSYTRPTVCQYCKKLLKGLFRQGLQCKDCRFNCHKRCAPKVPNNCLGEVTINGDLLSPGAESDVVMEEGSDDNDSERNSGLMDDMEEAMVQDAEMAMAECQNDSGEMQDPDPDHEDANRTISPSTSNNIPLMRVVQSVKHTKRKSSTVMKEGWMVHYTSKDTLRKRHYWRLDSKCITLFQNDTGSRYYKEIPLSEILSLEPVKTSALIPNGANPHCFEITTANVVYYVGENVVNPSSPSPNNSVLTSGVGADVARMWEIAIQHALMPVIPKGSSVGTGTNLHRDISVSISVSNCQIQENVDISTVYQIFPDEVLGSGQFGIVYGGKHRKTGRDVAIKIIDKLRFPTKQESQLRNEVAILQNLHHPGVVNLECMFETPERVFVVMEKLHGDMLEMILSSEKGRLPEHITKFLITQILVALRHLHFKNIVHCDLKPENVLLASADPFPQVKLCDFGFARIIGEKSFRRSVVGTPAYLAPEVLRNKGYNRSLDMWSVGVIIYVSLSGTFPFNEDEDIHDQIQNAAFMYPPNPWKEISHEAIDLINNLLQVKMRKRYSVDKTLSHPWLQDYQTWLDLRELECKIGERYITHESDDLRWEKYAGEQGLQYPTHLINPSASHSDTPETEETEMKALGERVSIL
As to conditions: PKCμ(h), read-out: Inhibition rate. The essentials:
as §1

Test [3] has as its target T3, 380 human recombinant protein kinases (Homo sapiens, UniProt P51812).
T3 construct: purchased Eurofins (Celle Lévescault)
Particulars: Rsk2(h), read-out: Inhibition rate (%). The gist of the method: as §1

Test [4] deals with T4, 380 human recombinant protein kinases (Homo sapiens, UniProt Q92918).
T4 construct: purchased Eurofins (Celle Lévescault)
T4 sequence (Q92918 whole entry): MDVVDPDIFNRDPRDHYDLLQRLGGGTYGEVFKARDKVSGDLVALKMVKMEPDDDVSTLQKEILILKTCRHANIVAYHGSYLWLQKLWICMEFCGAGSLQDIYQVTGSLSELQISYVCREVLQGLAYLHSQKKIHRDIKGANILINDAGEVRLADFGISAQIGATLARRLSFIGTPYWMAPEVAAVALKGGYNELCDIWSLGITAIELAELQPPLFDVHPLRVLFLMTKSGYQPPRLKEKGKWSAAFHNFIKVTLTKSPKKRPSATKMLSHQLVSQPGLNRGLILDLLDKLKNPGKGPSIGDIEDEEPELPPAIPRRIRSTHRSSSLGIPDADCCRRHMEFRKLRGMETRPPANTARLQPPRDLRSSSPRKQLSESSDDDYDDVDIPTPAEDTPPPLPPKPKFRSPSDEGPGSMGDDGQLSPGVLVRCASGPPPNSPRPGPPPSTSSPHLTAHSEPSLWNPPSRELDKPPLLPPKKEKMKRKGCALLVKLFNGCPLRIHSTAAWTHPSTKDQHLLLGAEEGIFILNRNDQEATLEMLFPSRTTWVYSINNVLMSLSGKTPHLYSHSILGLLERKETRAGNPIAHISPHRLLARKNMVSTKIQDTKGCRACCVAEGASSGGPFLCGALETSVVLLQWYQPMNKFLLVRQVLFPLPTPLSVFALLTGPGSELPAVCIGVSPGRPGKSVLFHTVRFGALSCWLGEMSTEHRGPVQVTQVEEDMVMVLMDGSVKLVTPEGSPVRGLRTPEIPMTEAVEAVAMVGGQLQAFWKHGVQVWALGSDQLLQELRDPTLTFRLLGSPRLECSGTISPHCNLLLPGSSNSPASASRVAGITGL
As to conditions: HPK1(h), read-out: Inhibition rate. The essentials:
as §1

In test [5] the target is T5, 380 human recombinant protein kinases (Homo sapiens, UniProt O96017).
T5 construct: purchased Eurofins (Celle Lévescault)
T5 sequence (O96017 whole entry): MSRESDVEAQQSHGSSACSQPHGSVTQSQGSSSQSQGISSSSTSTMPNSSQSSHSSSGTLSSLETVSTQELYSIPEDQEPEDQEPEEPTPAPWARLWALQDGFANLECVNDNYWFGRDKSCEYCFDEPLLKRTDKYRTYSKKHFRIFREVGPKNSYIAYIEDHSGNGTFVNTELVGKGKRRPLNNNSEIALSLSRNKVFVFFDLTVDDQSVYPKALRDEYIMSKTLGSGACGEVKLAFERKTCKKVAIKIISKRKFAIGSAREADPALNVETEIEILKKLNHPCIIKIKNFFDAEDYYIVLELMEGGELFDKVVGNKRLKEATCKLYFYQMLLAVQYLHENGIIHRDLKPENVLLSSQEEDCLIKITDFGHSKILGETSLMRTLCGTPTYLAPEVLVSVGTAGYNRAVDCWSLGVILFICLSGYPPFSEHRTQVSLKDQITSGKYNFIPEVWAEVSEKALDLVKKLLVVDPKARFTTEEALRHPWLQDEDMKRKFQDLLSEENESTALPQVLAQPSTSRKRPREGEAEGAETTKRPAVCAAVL
Particulars: CHK2(h), read-out: Inhibition rate. The gist of the method:
as §1

In test [6] the target is T6, 380 human recombinant protein kinases (Homo sapiens, UniProt P21802).
T6 construct: purchased Eurofins (Celle Lévescault)
T6 sequence (P21802 22-821): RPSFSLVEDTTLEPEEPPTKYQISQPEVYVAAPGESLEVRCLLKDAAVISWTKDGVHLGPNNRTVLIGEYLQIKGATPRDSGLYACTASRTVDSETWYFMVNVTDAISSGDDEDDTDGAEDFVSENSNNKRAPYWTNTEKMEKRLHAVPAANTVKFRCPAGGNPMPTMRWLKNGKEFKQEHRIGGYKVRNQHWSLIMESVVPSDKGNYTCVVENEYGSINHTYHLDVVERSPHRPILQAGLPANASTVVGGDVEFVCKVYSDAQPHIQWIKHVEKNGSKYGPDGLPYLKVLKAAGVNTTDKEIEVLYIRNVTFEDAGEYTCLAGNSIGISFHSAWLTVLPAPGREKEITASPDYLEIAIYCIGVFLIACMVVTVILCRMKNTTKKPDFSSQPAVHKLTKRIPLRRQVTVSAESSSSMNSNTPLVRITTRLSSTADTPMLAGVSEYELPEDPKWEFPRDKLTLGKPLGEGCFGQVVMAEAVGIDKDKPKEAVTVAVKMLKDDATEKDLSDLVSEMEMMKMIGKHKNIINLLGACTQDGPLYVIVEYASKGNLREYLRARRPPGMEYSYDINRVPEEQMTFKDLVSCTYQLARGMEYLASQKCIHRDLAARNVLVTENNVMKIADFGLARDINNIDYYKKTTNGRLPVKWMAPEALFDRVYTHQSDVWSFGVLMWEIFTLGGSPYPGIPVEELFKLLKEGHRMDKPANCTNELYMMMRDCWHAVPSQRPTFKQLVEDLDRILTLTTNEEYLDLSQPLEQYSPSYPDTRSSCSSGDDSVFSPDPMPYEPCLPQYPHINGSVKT
Particulars: FGFR2(h), read-out: Inhibition rate. The essentials: as §1

T3 sequence (P51812 whole entry): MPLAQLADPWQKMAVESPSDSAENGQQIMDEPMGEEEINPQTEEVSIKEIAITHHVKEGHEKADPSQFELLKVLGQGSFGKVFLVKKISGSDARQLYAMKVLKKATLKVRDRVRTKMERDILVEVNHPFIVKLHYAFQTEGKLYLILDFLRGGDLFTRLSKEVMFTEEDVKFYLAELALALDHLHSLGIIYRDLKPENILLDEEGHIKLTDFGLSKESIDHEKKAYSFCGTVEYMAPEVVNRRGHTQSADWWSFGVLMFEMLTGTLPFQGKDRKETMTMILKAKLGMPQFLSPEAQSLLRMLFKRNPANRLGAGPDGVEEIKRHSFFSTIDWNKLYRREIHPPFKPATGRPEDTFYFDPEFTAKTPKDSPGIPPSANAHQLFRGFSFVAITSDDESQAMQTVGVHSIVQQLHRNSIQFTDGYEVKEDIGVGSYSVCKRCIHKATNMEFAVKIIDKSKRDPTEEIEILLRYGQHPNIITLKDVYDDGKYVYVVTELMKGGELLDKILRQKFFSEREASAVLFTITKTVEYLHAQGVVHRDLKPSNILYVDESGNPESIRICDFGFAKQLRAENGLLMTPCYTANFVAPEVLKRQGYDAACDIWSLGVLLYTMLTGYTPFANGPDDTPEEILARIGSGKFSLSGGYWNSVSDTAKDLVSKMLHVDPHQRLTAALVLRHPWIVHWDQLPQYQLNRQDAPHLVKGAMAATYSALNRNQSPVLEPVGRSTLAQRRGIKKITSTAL

The term inhibition denotes the relative decrease from the control value, in per cent. Regarding `C=CC(=O)Nc1cc(-c2cc(-c3cc4c([nH]3)CCNC4=O)ccn2)ccc1OC(F)(F)F` [compound 11], the inhibition at 0.01 µM in test [1] (10 nM) is 5%; in test [2] (10 nM) it was -6%; in test [3] (10 nM) it was -6%; in test [4] (10 nM) it was -8%; in test [5] (10 nM), 3%; in test [6] (10 nM), -22%. The inhibition at 0.1 µM in test [1] (100 nM) was -2%; in test [2] (100 nM), 13%; in test [3] (100 nM), -11%; in test [4] (100 nM), -15%; in test [5] (100 nM), 16%; in test [6] (100 nM), -12%. Also, the inhibition at 1 µM in test [1] (1000 nM) is -14%; in test [2] (1000 nM), 45%; in test [3] (1000 nM) it was -3%; in test [4] (1000 nM) it was 1%; in test [5] (1000 nM) it was 55%; in test [6] (1000 nM), -2%.
